Data taken from paper PMC7962117, “The Complex Structure of Protein AaLpxC from Aquifex aeolicus with ACHN-975 Molecule Suggests an Inhibitory Mechanism at Atomic-Level against Gram-Negative Bacteria” (Molecules, 2021).
Numbering of substitutions follows the chain as printed.

What was measured:
Experiment in all cases: isothermal titration calorimetry
Assay type in all cases: binding
[1] = biological target: T1, AaLpxC (Aquifex aeolicus, UniProt O67648, T203A)
T1 construct: gene lpxC; codon-optimised gene in pET-21a (NdeI/XhoI), E. coli BL21(DE3); approx. 32 kDa; Zn2+ enzyme; last five residues LTRLE disordered in crystal
T1 sequence (O67648 1-271 T203A): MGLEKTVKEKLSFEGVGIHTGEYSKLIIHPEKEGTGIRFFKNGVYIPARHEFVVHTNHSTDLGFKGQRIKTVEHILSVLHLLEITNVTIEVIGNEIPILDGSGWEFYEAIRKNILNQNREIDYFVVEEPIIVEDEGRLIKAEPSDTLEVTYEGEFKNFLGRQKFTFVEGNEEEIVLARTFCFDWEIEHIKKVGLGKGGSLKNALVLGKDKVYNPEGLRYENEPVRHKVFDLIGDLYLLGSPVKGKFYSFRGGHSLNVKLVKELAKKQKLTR
Description: (§1) isothermal titration calorimetry on AaLpxC

[2] = biological target: T2, AaLpxC (Aquifex aeolicus, UniProt O67648, I186A)
T2 construct: gene lpxC; codon-optimised gene in pET-21a (NdeI/XhoI), E. coli BL21(DE3); approx. 32 kDa; Zn2+ enzyme; last five residues LTRLE disordered in crystal
T2 sequence (O67648 1-271 I186A): T1 sequence (O67648 1-271 T203A) with I186A, A203T
Description: as §1

[3] = biological target: T3, AaLpxC (Aquifex aeolicus, UniProt O67648, S59A)
T3 construct: gene lpxC; codon-optimised gene in pET-21a (NdeI/XhoI), E. coli BL21(DE3); approx. 32 kDa; Zn2+ enzyme; last five residues LTRLE disordered in crystal
T3 sequence (O67648 1-271 S59A): T1 sequence (O67648 1-271 T203A) with S59A, A203T
Description: as §1

[4] = biological target: T4, AaLpxC (Aquifex aeolicus, UniProt O67648, H19A)
T4 construct: gene lpxC; codon-optimised gene in pET-21a (NdeI/XhoI), E. coli BL21(DE3); approx. 32 kDa; Zn2+ enzyme; last five residues LTRLE disordered in crystal
T4 sequence (O67648 1-271 H19A): T1 sequence (O67648 1-271 T203A) with H19A, A203T
Description: as §1

[5] = biological target: T5, AaLpxC (Aquifex aeolicus, UniProt O67648, I18A)
T5 construct: gene lpxC; codon-optimised gene in pET-21a (NdeI/XhoI), E. coli BL21(DE3); approx. 32 kDa; Zn2+ enzyme; last five residues LTRLE disordered in crystal
T5 sequence (O67648 1-271 I18A): T1 sequence (O67648 1-271 T203A) with I18A, A203T
Description: as §1

[6] = biological target: T6, AaLpxC (Aquifex aeolicus, UniProt O67648, E185A)
T6 construct: gene lpxC; codon-optimised gene in pET-21a (NdeI/XhoI), E. coli BL21(DE3); approx. 32 kDa; Zn2+ enzyme; last five residues LTRLE disordered in crystal
T6 sequence (O67648 1-271 E185A): T1 sequence (O67648 1-271 T203A) with E185A, A203T
Description: as §1

[7] = biological target: T7, AaLpxC (Aquifex aeolicus, UniProt O67648, I189A)
T7 construct: gene lpxC; codon-optimised gene in pET-21a (NdeI/XhoI), E. coli BL21(DE3); approx. 32 kDa; Zn2+ enzyme; last five residues LTRLE disordered in crystal
T7 sequence (O67648 1-271 I189A): T1 sequence (O67648 1-271 T203A) with I189A, A203T
Description: as §1

[8] = biological target: T8, AaLpxC (Aquifex aeolicus, UniProt O67648, F180A)
T8 construct: gene lpxC; codon-optimised gene in pET-21a (NdeI/XhoI), E. coli BL21(DE3); approx. 32 kDa; Zn2+ enzyme; last five residues LTRLE disordered in crystal
T8 sequence (O67648 1-271 F180A): T1 sequence (O67648 1-271 T203A) with F180A, A203T
Description: as §1

[9] = biological target: T9, AaLpxC (Aquifex aeolicus, UniProt O67648, K227A)
T9 construct: gene lpxC; codon-optimised gene in pET-21a (NdeI/XhoI), E. coli BL21(DE3); approx. 32 kDa; Zn2+ enzyme; last five residues LTRLE disordered in crystal
T9 sequence (O67648 1-271 K227A): T1 sequence (O67648 1-271 T203A) with A203T, K227A
Description: as §1

[10] = biological target: T10, AaLpxC (Aquifex aeolicus, UniProt O67648, E73A)
T10 construct: gene lpxC; codon-optimised gene in pET-21a (NdeI/XhoI), E. coli BL21(DE3); approx. 32 kDa; Zn2+ enzyme; last five residues LTRLE disordered in crystal
T10 sequence (O67648 1-271 E73A): T1 sequence (O67648 1-271 T203A) with E73A, A203T
Description: as §1

[11] = biological target: T11, AaLpxC (Aquifex aeolicus, UniProt O67648)
T11 construct: gene lpxC; codon-optimised gene in pET-21a (NdeI/XhoI), E. coli BL21(DE3); approx. 32 kDa; Zn2+ enzyme; last five residues LTRLE disordered in crystal
T11 sequence (O67648 1-271): T1 sequence (O67648 1-271 T203A) with A203T
Description: as §1

## CC(C)(N)[C@H](NC(=O)c1ccc(C#CC#C[C@@H]2C[C@H]2CO)cc1)C(=O)NO [ACHN-975]
[1]
  Kd: 2000 ± 1400 nM
[2]
  Kd: 200 ± 90 nM
[3]
  Kd: 400 ± 100 nM
[4]
  Kd: 400 ± 200 nM
[5]
  Kd: 400 ± 300 nM
[6]
  Kd: 60 ± 30 nM
[7]
  Kd: 100 ± 90 nM
[8]
  Kd: 90 ± 70 nM
[9]
  Kd: 100 ± 80 nM
[10]
  Kd: 70 ± 50 nM
[11]
  Kd: 400 ± 100 nM
